What all share (assay type): biochemical, S. cerevisiae
The target in test [1] is T1, KEX2 endopeptidase (kex2[YEp24-pJ2B] membranes) (Saccharomyces cerevisiae, UniProt P13134).
T1 construct: not only includes the KEX2 gene, but also the necessary transcriptional and translational regulatory signals for expression in yeast; expressed in transfected cells; host or cells: S. cerevisiae XBH16-15A (MATalpha kex2-1) carrying YEp24-pJ2B
T1 sequence (P13134 114-814): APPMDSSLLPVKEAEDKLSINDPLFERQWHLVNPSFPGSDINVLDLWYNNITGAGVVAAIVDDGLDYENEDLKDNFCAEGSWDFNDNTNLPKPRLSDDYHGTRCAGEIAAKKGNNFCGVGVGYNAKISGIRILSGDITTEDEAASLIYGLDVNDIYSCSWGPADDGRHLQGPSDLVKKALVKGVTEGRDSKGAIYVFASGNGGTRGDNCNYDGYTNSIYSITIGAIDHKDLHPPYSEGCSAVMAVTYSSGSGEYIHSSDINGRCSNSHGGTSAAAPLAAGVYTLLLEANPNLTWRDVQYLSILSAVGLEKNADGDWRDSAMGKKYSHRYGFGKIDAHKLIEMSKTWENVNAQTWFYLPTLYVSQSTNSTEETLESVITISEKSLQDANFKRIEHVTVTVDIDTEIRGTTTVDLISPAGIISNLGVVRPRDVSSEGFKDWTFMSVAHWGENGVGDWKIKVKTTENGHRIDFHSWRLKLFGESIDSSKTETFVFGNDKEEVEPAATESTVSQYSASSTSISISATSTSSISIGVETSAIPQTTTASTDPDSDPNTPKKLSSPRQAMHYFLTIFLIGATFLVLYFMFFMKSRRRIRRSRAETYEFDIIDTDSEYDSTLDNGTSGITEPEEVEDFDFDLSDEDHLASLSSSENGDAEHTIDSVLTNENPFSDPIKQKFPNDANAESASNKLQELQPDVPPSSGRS
Briefly: Endopeptidase activity in membranes from kex2 cells carrying multicopy plasmid pJ2B (over-produced specific endopeptidase). Particulars: for Relative Ratio: kex2[YEp24-pJ2B] relative to kex2[YEp24] = [1.0]; for Rate of hydrolysis (in words) / Rate of hydrolysis, membranes from kex2 cells carrying pJ2B versus membranes from kex2 cells carrying YEp24: membrane fractions; for Rate of hydrolysis (in words): endopeptidase substrates containing single arginine residues; for Rate of hydrolysis, membranes from kex2 cells carrying pJ2B versus membranes from kex2 cells carrying YEp24: depending on the experiment. How it is done: (§1) Permeabilization of whole yeast cells with the non-ionic detergent Brij 58, preparation of crude membrane fractions, and measurement of protein concentration were conducted by the methods described previously (Julius et al., 1983, supra), incorporated herein by reference. To measure peptidase activity, samples of permeabilized cells or membrane material were added to a reaction mixture containing 0.1-0.5 mM fluorogenic peptide substrate (added from a 20 mM stock dissolved in DMSO) and 200 mM HEPES-Tris (pH 7.0), in a final volume of 0.4 ml. Following incubation for 30 min at 37° C., whole cells were removed by centrifugation in a microfuge (Eppendorf) and membrane material was removed by Ba(OH)2 -ZnSO4 precipitation. The amount of fluorescence formed in the supernatant solution was determined in a fluorescence spectrophotometer (Perkin-Elmer, Model MPF-44B), set either at an excitation wavelength of 335 nm and an emission wavelength of 410 nm (for measurement of β-naphthylamine) or at an excitation wavelength of 380 nm and an emission wavelength of 460 nm (for measurement of 7-amino-4-methyl-coumarin, AMC). To determine the number of moles of substrate hydrolyzed, the fluorescence yield of samples was compared to a standard curve prepared with known concentrations of authentic AMC dissolved in the same buffer.
(§2) Cells of strain XBH1615A that had been transformed with the plasmids
(§3) indicated, or that contained pJ2B in integrated form, were grown in SCUra
(§4) and membranes were prepared as described in the Experimental.
(§5) Endopeptidase activity was assayed as described in the Experimental. All
(§6) substrates tested were present at 0.1 mM.
(§7) Endopeptidase activity was assayed using Boc--GlnArgArg--MCA as the
(§8) substrate, as outlined in the Experimental. All inhibitors were added fro
a 0.1 M stock dissolved in dimethyl sulfoxide.

Test [2] has as its system background activity in membranes of kex2[YEp24] cells. The test can be described thus: Endopeptidase activity in membranes from kex2 cells transformed with the vector YEp24 alone (background activity). Particulars: for Susceptibility of the background activity to inhibition: kex2 cells transformed with YEp24 alone. On the procedure:
as §1, §2, §3, §4, §5, §6, §7, §8
(§9) a 0.1 M stock dissolved in dimethyl sulfoxide. All values given were
(§10) corrected for the slight effects of addition of this solvent alone.

Test [3] has as its target T2, KEX2 endopeptidase (kex2::pJ2B membranes) (Saccharomyces cerevisiae, UniProt P13134).
T2 construct: not only includes the KEX2 gene, but also the necessary transcriptional and translational regulatory signals for expression in yeast; expressed in transfected cells; host or cells: S. cerevisiae XBH16-15A (MATalpha kex2-1) containing pJ2B in integrated form; crude membranes
The test can be described thus: Endopeptidase activity in membranes from kex2 cells containing pJ2B in integrated form. Particulars: for Relative Ratio: kex2::pJ2B relative to kex2[YEp24] = [1.0]. How it is done:
as §1, §2, §3, §4, §5, §6, §7, §8, §9, §10

Where [4] appears, read: kex2 cells transformed with plasmid pJ2B, comparisons are to the background activity.
The mark [5] stands for this setting: strain kex2[YEp24-pJ2B], substrate 0.1 mM, membranes.
The mark [6] stands for this setting: strain kex2[YEp24], substrate 0.1 mM, membranes.
[7] abbreviates: strain kex2::pJ2B, substrate 0.1 mM, membranes.
[8] abbreviates: kex2[YEp24-pJ2B], inhibitor 1 mM, substrate Boc-GlnArgArg-MCA.
The mark [9] stands for this setting: kex2[YEp24-pJ2B], inhibitor 5 mM, substrate Boc-GlnArgArg-MCA.
[10] abbreviates: kex2[YEp24], inhibitor 1 mM, substrate Boc-GlnArgArg-MCA.
The mark [11] stands for this setting: kex2[YEp24], inhibitor 5 mM, substrate Boc-GlnArgArg-MCA.
Where [12] appears, read: kex2::pJ2B, inhibitor 1 mM, substrate Boc-GlnArgArg-MCA.
Setting [13] is: kex2::pJ2B, inhibitor 5 mM, substrate Boc-GlnArgArg-MCA.

Read-outs that look alike come from different tables or passages of the source. Peptide text beside a SMILES is read from it. * marks the point of attachment. AMC = Cc1cc(=O)oc2cc(N*)ccc12; Boc = CC(C)(C)OC(=O)*

Regarding `NC(=O)CI` [iodoacetamide], in test [1] (setting [4]), the “Susceptibility of the specific KEX2 endopeptidase to inhibition or inactivation” value (shortened to “Susceptibility … to inhibition or inactivation”) is listed as “more susceptible to inhibition”.

On to `Cc1cc(=O)oc2cc(NC(=O)[C@H](CCCNC(=N)N)NC(=O)[C@H](CO)NC(=O)[C@H](Cc3ccccc3)NC(=O)OC(C)(C)C)ccc12` [Boc--PheSerArg--MCA, Boc-PheSerArg-MCA] (Boc-Phe-Ser-Arg-{AMC}), for which the entries for the “Relative Ratio” value in test [1] (substrate 0.1 mM) and in test [3] (substrate 0.1 mM) were 51.7 and 6.3, respectively. Moreover, in test [1] (membrane fractions of kex2 cells carrying pJ2B), the “Rate of hydrolysis relative to Boc-GlnArgArg-MCA, times more slowly” value is recorded as “about three times more slowly”. Also, the “Specific Activity” value in test [1] (setting [5]) is on record as 31.0 pmoles AMC formed/μg protein 10; in test [2] (setting [6]), 0.6 pmoles AMC formed/μg protein 10; in test [3] (setting [7]) it was 3.8 pmoles AMC formed/μg protein 10.

With `Cc1cc(=O)oc2cc(NC(=O)[C@H](CCCNC(=N)N)NC(=O)c3ccccc3)ccc12` [Bz--Arg--MCA, Bz-Arg-MCA], the “Relative Ratio” value in test [1] (substrate 0.1 mM) was found to be 6.0; in test [3] (substrate 0.1 mM), 1.0. The “Rate of hydrolysis (in words)” value in test [1] was “negligible rates”. The “Specific Activity” value in test [1] (setting [5]) was 0.6 pmoles AMC formed/μg protein 10; in test [2] (setting [6]) it was 0.1 pmoles AMC formed/μg protein 10; in test [3] (setting [7]), 0.1 pmoles AMC formed/μg protein 10.

For `C[S+](C)[O-]` [dimethyl sulfoxide], the “Susceptibility … to inhibition or inactivation” value in test [1] (setting [4]) is listed as “much less sensitive to inactivation”.

With `O=S(=O)(F)Cc1ccccc1` [PMSF, phenylmethylsulfonyl fluoride], the Inhibition in test [1] (setting [8]) came to 0%; in test [1] (setting [9]), 0%; in test [2] (setting [10]), 45%; in test [2] (setting [11]) it was 71%; in test [3] (setting [12]), 17%; in test [3] (setting [13]), 16%. Further, the “Specific Activity” value was determined as 116.7 pmoles/μg/10 min in test [1] (setting [8]); 110.2 pmoles/μg/10 min in test [1] (setting [9]); 2.8 pmoles/μg/10 min in test [2] (setting [10]); 1.5 pmoles/μg/10 min in test [2] (setting [11]); 14.4 pmoles/μg/10 min in test [3] (setting [12]); 14.7 pmoles/μg/10 min in test [3] (setting [13]). Besides, in test [1] (setting [4]), the “Susceptibility … to inhibition or inactivation” value was “completely resistant”. For the same compound, the “Susceptibility of the background activity to inhibition” value in test [2] is given as “sensitive to inhibition”.

For the compound `O=C(O)CI` [iodoacetic acid], the “Susceptibility … to inhibition or inactivation” value in test [1] is “more susceptible to inhibition”.

`Cc1cc(=O)oc2cc(NC(=O)[C@@H](N)CC(C)C)ccc12` [Leu--MCA, Leu-MCA]: the “Relative Ratio” value in test [1] (substrate 0.1 mM) was found to be 2.1; in test [3] (substrate 0.1 mM), 1.1. The “Rate of hydrolysis, membranes from kex2 cells carrying pJ2B versus membranes from kex2 cells carrying YEp24” value in test [1] is “no significant increase”. Moreover, the figures for the “Specific Activity” value in test [1] (setting [5]), in test [2] (setting [6]) and in test [3] (setting [7]) were 69.8 pmoles AMC formed/μg protein 10, 33.7 pmoles AMC formed/μg protein 10 and 37.9 pmoles AMC formed/μg protein 10, respectively.

Turning to `Cc1ccc(S(=O)(=O)NC(Cc2ccccc2)C(=O)CCl)cc1` (centres unmarked) [TPCK, tosyl-phenylalanine-chloromethylketone], the “Specific Activity” value in test [1] (setting [8]) turned out to be 105.9 pmoles/μg/10 min; in test [1] (setting [9]), 109.2 pmoles/μg/10 min; in test [2] (setting [10]), 2.2 pmoles/μg/10 min; in test [2] (setting [11]) it was 1.4 pmoles/μg/10 min; in test [3] (setting [12]), 14.3 pmoles/μg/10 min; in test [3] (setting [13]), 15.2 pmoles/μg/10 min. For the same compound, the inhibition at 1000 µM in test [1] (setting [8]) came out at 2%; in test [3] it was 18%. Also, the figures for the inhibition at 5000 µM in test [1] (setting [9]) and in test [3] were 0% and 13%, respectively. The “Susceptibility … to inhibition or inactivation” value in test [1] (setting [4]) is “completely resistant”. In addition, the Inhibition was determined as 57% in test [2] (setting [10]) and 73% in test [2] (setting [11]). Moreover, the “Susceptibility of the background activity to inhibition” value in test [2] was “sensitive to inhibition”.

For the compound `CO` [methanol], the “Susceptibility … to inhibition or inactivation” value in test [1] is “much less sensitive to inactivation”.

With `Cc1ccc(S(=O)(=O)NC(CCCCN)C(=O)CCl)cc1` (centres unmarked) [TLCK, tosyl-lysine-chloromethylketone], the “Specific Activity” value in test [1] (setting [8]) was determined as 100.8 pmoles/μg/10 min; in test [1] (setting [9]), 95.5 pmoles/μg/10 min; in test [2] (setting [10]) it was 2.3 pmoles/μg/10 min; in test [2] (setting [11]), 1.8 pmoles/μg/10 min; in test [3] (setting [12]), 14.6 pmoles/μg/10 min; in test [3] (setting [13]), 14.5 pmoles/μg/10 min. Moreover, the inhibition at 1000 µM is 7% in test [1] (setting [8]) and 16% in test [3]. Also, the inhibition at 5000 µM in test [1] (setting [9]) was 12%; in test [3], 17%. Further, the “Susceptibility … to inhibition or inactivation” value in test [1] (setting [4]) is listed as “completely resistant”. Further, the Inhibition in test [2] (setting [10]) is reported as 55%; in test [2] (setting [11]), 65%. The “Susceptibility of the background activity to inhibition” value in test [2] is listed as “sensitive to inhibition”.

For `CC[C@H](C)[C@H](NC(=O)OC(C)(C)C)C(=O)N[C@@H](CCC(=O)O)C(=O)NCC(=O)N[C@@H](CCCNC(=N)N)C(=O)Nc1ccc2c(C)cc(=O)oc2c1` [Boc--IleGluGlyArg--MCA, Boc-IleGluGlyArg-MCA] (Boc-IEGR-{AMC}), the results for the “Relative Ratio” value in test [1] (substrate 0.1 mM) and in test [3] (substrate 0.1 mM) were 19.3 and 3.0, respectively. Further, the “Rate of hydrolysis (in words)” value in test [1] is recorded as “negligible rates”. The “Specific Activity” value in test [1] (setting [5]) is recorded as 5.8 pmoles AMC formed/μg protein 10; in test [2] (setting [6]) it was 0.3 pmoles AMC formed/μg protein 10; in test [3] (setting [7]), 0.9 pmoles AMC formed/μg protein 10.

For the compound `NC=O` [formamide], the “Susceptibility … to inhibition or inactivation” value in test [1] (setting [4]) is on record as “much less sensitive to inactivation”.

In the case of `Cc1cc(=O)oc2cc(NC(=O)[C@@H](N)CCCNC(=N)N)ccc12` [Arg--MCA, Arg-MCA], the “Relative Ratio” value was 2.1 in test [1] (substrate 0.1 mM) and 1.2 in test [3] (substrate 0.1 mM). The “Rate of hydrolysis, membranes from kex2 cells carrying pJ2B versus membranes from kex2 cells carrying YEp24” value in test [1] is recorded as “no significant increase”. For the same compound, the “Specific Activity” value in test [1] (setting [5]) is 14.0 pmoles AMC formed/μg protein 10; in test [2] (setting [6]), 6.7 pmoles AMC formed/μg protein 10; in test [3] (setting [7]), 8.0 pmoles AMC formed/μg protein 10.

The record behind these values is patent US5077204A, “Yeast endopeptidase for basic amino-acid site cleavage, preparation and use” (Chiron Corporation, priority 1988, dated 1991).
